Tests used:
[1] = system: Meth A fibrosarcoma; assay: Meth A fibrosarcoma tumor volume in mice (Test Example 2); type: in vivo, BALB/c mice; conditions: Test (2): start tumor volume 160-180 mm³; irsogladine maleate 10 mg/kg or 5-fluorouracil 30 mg/kg orally; Fig. 2
Method: • (1) The homologus tumor Meth A fibrosarcoma subcultured (ascites type) in BALB/c mice, 5 x 10^5 cells, was transplanted subcutaneously at the flank of 6-week-old male BALB/c mice. Mice having a tumor volume of 70-100 mm³ were selected and divided into groups of 9. Oral single daily administration of the test compound was started and the body weight and tumor volume were serially determined. The volume was determined using the same calculation formula as shown in Test Example 1. The compound of the invention irsogladine maleate, 10 mg/kg, suspended in 0.5% methylcellulose maleate and 5-fluorouracil, 15 mg/kg, dissolved in 0.5% methylcellulose solution were respectively administered orally. The control group received 0.5% methylcellulose solution orally. […] The effect of the com pound of this invention as an anticancer agent is, thus, clear. • (2) As in the above test, mice having a tumor volume of 160-180 mm³ were selected and subjected to the same test as above. The compound of this invention irsogladine maleate, 10 mg/kg, 5-flurorouracil, 30 mg/kg, or as a combination therapy, irsogladine maleate, 10 mg/kg, plus 5-fluorouracil, 30 mg/kg, were administered orally. The control group received the same control material as in the above test orally. […] The anticancer adjuvant activity of the compound of this invention to 5-FU is clear.
The open circle stands for control, the open triangle for 5-FU and the closed circle for the compound of the invention. The tumor volume (mm³) is plotted on the vertical axis and the number of days after drug administration on the horizontal axis.
The open circle stands for control, the open triangle for F-5U, the closed circle for the compound of the invention, the open square for the combination therapy. The tumor volume (mm³) is plotted on the vertical axis and the number of days after drug administration on the horizontal axis.

[2] = system: WiDr (human colon cancer); assay: Tumor growth inhibition, WiDr implant in nude mice (Test Example 1); type: in vivo, BALB/c nude mice; conditions: implant volume on day 18 after transplantation divided by volume at transplantation; irsogladine maleate 10 mg/kg orally once daily from day 14; cyclophosphamide 150 mg/kg intraperitoneally once on day 14; groups of 10
Method: WiDr (human colon cancer) cells subcultured in BALB/c nude mice were dissected to prepare cubes, about 2 mm³ each. These cubes were transplanted subaxillarily into separate BALB/c nude mice using a transplantation needle. The animals were divided into groups of 10 individuals on day 10 after transplantation and the body weight and the diameter of the implant were serially determined. As the compound of this invention, irsogladine maleate, 10 mg/kg, was suspended in 0.5% methylcellulose solution and administered orally once daily beginning day 14 after transplantation. Cyclophosphamide, 150 mg/kg, was dissolved in PBS and administered intraperitoneally once on day 14 after transplantation. The control group received 0.5% methylcellulose solution orally once daily beginning day 14 after transplantation.
The volume of the implant on day 18 after transplantation was divided by the volume at trans plantation. […]
The effect of the compound of this invention as an anticancer agent is clear.

| Structure (SMILES) | tumor-inhibitory effect, single drug [1] | Tumor volume ratio [2] |
| --- | --- | --- |
| O=c1[nH]cc(F)c(=O)[nH]1 [5-FU, 5-fluorouracil, reference compound] | tumor-inhibitory effect | – |
| O=P1(N(CCCl)CCCl)NCCCO1 (centres unmarked) [Cyclophosphamide, reference compound] | – | 1.52 ± 0.06 |
